The text below walks through data of patent USRE46604E1, “Treatment of circadian rhythm disorders” (VANDA PHARMACEUTICALS, INC., priority 2012, dated 2017).

SMILES strings stand for the structures. Read-outs that look alike come from different tables or passages of the source.

The nature of series [1]: Fluvoxamine co-administration pharmacokinetic study. The class given is in vivo, human. On the procedure: Twenty-four healthy male or female subjects between the ages of 18 and 55 years of age (inclusive) who were non-smokers with a body mass index (BMI) of ≧18 and ≦35 kg/m2 participated in this open-label, single-sequence study conducted at one site. On day 1, subjects were administered 5.667 mg of tasimelteon.

Series [2] in a line: Effect of smoking on pharmacokinetics. The class given is in vivo, human. The settings on record: for Vd/F: read-out: Vz/F; for half-life: read-out: t½ (converted). The source says: Smokers were defined as those smoking 10 or more cigarettes per day. Non-smokers were defined as those smoking no cigarettes per day.
A further series deals with T1, MT2R (Homo sapiens, UniProt P49286).
T1 sequence (P49286 1-362): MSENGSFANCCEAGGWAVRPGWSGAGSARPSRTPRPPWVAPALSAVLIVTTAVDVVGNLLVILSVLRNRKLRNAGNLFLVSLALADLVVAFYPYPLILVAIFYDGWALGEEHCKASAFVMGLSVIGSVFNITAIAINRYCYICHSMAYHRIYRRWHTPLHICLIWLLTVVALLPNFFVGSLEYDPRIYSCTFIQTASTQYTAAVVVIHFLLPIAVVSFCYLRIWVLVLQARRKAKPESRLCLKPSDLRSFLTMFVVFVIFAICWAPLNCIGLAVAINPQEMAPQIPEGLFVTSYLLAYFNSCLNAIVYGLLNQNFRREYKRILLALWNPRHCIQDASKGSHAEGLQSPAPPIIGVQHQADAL
Description: Melatonin receptor MT2R affinity. It counts as binding.

The next series has as its target MT1R (Homo sapiens, UniProt P48039). The experiment in a line: Melatonin receptor MT1R affinity. The class given is binding.
The nature of a further series: tmax as stated in text. The settings on record: in vivo.
A further series relates to Non-24 patients. The experiment in a line: Entrainment by baseline peak aMT6s and beta blocker status (clinical studies). It counts as in vivo, humans. On the procedure: A useful protocol for estimating tau in candidates for clinical testing for treatment of Non-24, which method can be applied to diagnosis of Non-24 in a given patient, is as follows: • Each subject will undergo four 48-hour urine collection sessions at nominal days 7, 14, 21, and 28. During each session, the start of the session and the time of each void will be recorded. Urine collected over periods of 4 hours (with the first 4 hour collection period of the day beginning at scheduled wake time), or about 8 hours during sleep, will be pooled (the “collection interval”); thus, subjects will have a total of 10 urine collection intervals during each 48-hour period. A study nurse will determine the volume of urine collected during each interval (urine will be transferred to a graduated cylinder) and an aliquot will be assayed for aMT6s. • For each collection interval, the start and end time of the interval will be used to determine the midpoint and duration of the interval. The start time of a given interval is defined as the last void time from the prior 4 hour (or 8 hour) collection interval; the end time of a given interval is defined as the last void time within the collection interval. • The mass of the primary melatonin metabolite (aMT6s) excreted during the interval will be determined as the product of aMT6s concentration and volume of urine. Rate of aMT6s excretion will be determined as the mass of aMT6s excreted divided by the duration of the interval. […] For screening there will be occasions when the 4 different weeks that urine collections are conducted will span a change in the clock time. Therefore, all urine collection times will be automatically translated into local standard time for calculations and then translated back to DST for reporting purposes, if appropriate. • In certain situations, urine collections or their recording will be incomplete. The following procedures will be invoked to address this: • 1. If a subject fails to timestamp a void, no action will be taken if there are multiple voids with timestamps within one interval. • 2. If there is only one void in a collection interval, and the patient cannot recall the time of the void then the entire 48 hour collection period will be excluded from the analysis and the subject will be requested to collect an additional 48 hours of urine after Day 28. It would not be possible to accurately determine to which collection interval the unmarked urine belongs. Consequently, the appropriate assignment of start and stop times to all of the collection intervals would be questionable. • 3. If a void is discarded by the patient but the time of the void is known, duration associated with that void (time of the void minus the time of the previous void) will be subtracted from the total duration associated with that interval. This modified duration will be used to calculate rate of aMT6s excretion. If a discarded sample is either the first or last of the samples in an interval, the midpoint of that interval will be calculated without considering that sample. • 4. If fewer than 4 samples are available for one 48-hour collection session, fitting of the cosine will be compromised (inadequate degrees of freedom). Consequently, acrophase will not be determined if fewer than four samples are available. • For each session, acrophase will be determined by fitting a cosine to the data from that session using unweighted non-linear regression. Fitting will be performed using a non-linear least squares fitting algorithm. The fitting process will estimate phase shift, mesor, and amplitude and their respective standard errors; period of the cosine will be fixed to 24 hours.* • Acrophase will be determined as the phase shift modulus 24 hours. • If acrophase values are available for three or more sessions, tau will be calculated using the following procedure: • 1. Acrophase will be recalculated relative to day 0 (24·start day for each session+acrophase). • 2. […]

[3] abbreviates: both sexes, human, in vivo, Day 1: 5.667 mg tasimelteon alone.
The mark [4] stands for this setting: Smokers (10 or more cigarettes per day).
Setting [5] is: compared to tasimelteon administered alone.
Setting [6] is: human, in vivo, Smokers (10 or more cigarettes per day).

Chain of MT1R (P48039 whole entry): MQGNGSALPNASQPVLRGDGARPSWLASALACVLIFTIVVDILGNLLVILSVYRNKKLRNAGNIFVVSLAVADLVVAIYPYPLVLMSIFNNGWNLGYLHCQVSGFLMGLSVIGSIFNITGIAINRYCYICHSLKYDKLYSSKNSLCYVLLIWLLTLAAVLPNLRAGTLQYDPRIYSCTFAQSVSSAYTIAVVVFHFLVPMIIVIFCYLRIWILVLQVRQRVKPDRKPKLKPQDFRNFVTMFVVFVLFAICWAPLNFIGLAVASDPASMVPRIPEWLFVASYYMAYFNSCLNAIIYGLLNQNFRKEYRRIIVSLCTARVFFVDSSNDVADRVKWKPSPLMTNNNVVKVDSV

With `CCC(=O)NC[C@@H]1CC1c1cccc(O)c1CCO` (some centres unmarked) [M9], the AUC(0-inf) in series [1] (setting [3]) is 44.5 ± 17.2 ng·h/mL.
As to `CCC(=O)NC[C@@H]1CC1c1cccc(O)c1CC(=O)O` (some centres unmarked) [M11], the AUC(0-inf) in series [1] (setting [3]) is 104 ± 30 ng·h/mL.
For `CCC(=O)NCC1CC1c1cccc2c1C(O)CO2` (centres unmarked) [M14], in series [2] (setting [4]), the “AUC (inf)” value is recorded as 9.45 ± 11.88 h x ng/mL and the Tmax is 45 min.
As to `CCC(=O)NC[C@@H]1C[C@H]1c1cccc2c1CCO2` (relative stereo) [Tasimelteon, trans-N-[[2-(2,3-dihydrobenzofuran-4-yl)cycloprop-1yl]methyl]propanamide], the Ki at MT2R was 0.1 to 0.2 nM; at MT1R it was 0.3 to 0.4 nM. Moreover, the AUC(0-inf) in series [1] (setting [3]) was found to be 102 ± 61.5 ng·h/mL; in series [2] (human, in vivo, Non-Smokers), 389 ± 429 ng·h/mL; in series [2] (setting [6]) it was 205 ± 152 ng·h/mL. Besides, the Cmax worked out at 68 ± 28.9 ng/mL in series [1] (setting [3]); 239 ± 177 ng/mL in series [2] (human, in vivo, Non-Smokers); 136 ± 59.5 ng/mL in series [2] (setting [6]). The Tmax was 30 min in series [1] (setting [3]); 30 min in series [2] (human, in vivo, Non-Smokers, read-out: Tmax); 45 min in series [2] (human, in vivo, Smokers (10 or more cigarettes per day), read-out: Tmax); “approximately one-half” in the series “tmax as stated in text”. Besides, the half-life in series [1] (both sexes, human, in vivo, Day 1: 5.667 mg tasimelteon alone, read-out: t½ (converted)) is 72 ± 13.2 min; in series [2] (human, in vivo, Non-Smokers), 70.8 ± 27.6 min; in series [2] (setting [6]) it was 59.4 ± 10.8 min. Moreover, the “increase of AUC0-inf upon co-administration of fluvoxamine” value in series [1] (setting [5]) was “approximately 7 fold”. Besides, in series [1] (setting [5]), the “increase of Cmax upon co-administration of fluvoxamine” value was “approximately 2 fold”. The Vd/F in series [2] (human, in vivo, Non-Smokers) was 133 ± 83 L; in series [2] (setting [6]), 189 ± 94.2 L. In addition, the “Entrained, percent of patients” value with Non-24 patients (Peak aMT6s <1500 ng/hr) was 41%; with Non-24 patients (Peak aMT6s <2000 ng/hr), 38%; with Non-24 patients (Peak aMT6s ≧1500 ng/hr), 67%; with Non-24 patients (Peak aMT6s ≧2000 ng/hr), 85%; in the series with Non-24 patients (Peak aMT6s: All), 51%. Further, the “Non-entrained, percent of patients” value in the series with Non-24 patients (Peak aMT6s <1500 ng/hr) is given as 59%; with Non-24 patients (Peak aMT6s <2000 ng/hr) it was 62%; with Non-24 patients (Peak aMT6s ≧1500 ng/hr) it was 33%; in the series with Non-24 patients (Peak aMT6s ≧2000 ng/hr), 15%; in the series with Non-24 patients (Peak aMT6s: All) it was 49%.
As to `CCC(=O)NCC1CC1c1cccc2c1C(O)CO2` (centres unmarked) [M12], in series [2] (setting [4]), the “AUC (inf)” value amounted to 526 ± 193 h x ng/mL and the Tmax is 60 min.
